Reference: patent US6894074B2, “Synergistic insecticidal mixtures” (Bayer Aktiengesellschaft, priority 1999, dated 2005)

What was measured:
Type in all cases: in vivo
Bemisia tabaci = experiment: Field spray test against Bemisia tabaci on cotton, efficacy by the method of Abbott; settings: larvae on cotton
Method: The spray liquor (1000 l of water/ha) comprising the active compound(s) was applied using a knapsack sprayer operated by pressurized air. The plot size was 19 m^2. The effect was evaluated 7, 10 and 14 days after the application by determining the number of larvae still alive on the leaf undersurface (10 leaves/plot) and calculating the efficacy by the method of Abbott.

Aphis gossypii = experiment: Field spray test against Aphis gossypii on courgettes, efficacy by the method of Abbott; settings: 4 spray applications
Method: The spray liquor (1000 l of water/ha) comprising the active compound(s) was applied using a knapsack sprayer operated with compressed air. 4 spray applications were carried out at intervals of 9-13 days. The plot size was 12 m^2. The effect on the aphids was determined 7, 16 and 29 days after the last application (start of the infestation after the 2nd treatment) by counting the animals which were still alive/leaf (10 leaves/plot) and calculating the efficacy by the method of Abbott.

white fly Bemisia tabaci = experiment: Bemisia test: infested cotton plants dipped into preparation of active compound, kill in %; settings: 4 ppm active compound
From the text: The expected activity for a given combinatin of two active compounds can be calculated as follows (according to S. R. Colby, Weeds 15 (1967), 20-22):
If the actual activity exceeds the calculated value, then the activity of the combination is superadditive, i.e. a synergistic effect exists. In this case, the efficacy which was actually observed must be greater than the value for the expected efficacy (E) calculated from the abovementioned formula.
To produce a suitable preparation of active compound, 1 part by weight of active compound is mixed with the stated amounts of solvent and emulsifier, and the concentrate is diluted with water to the desired concentrations.
Cotton plants (Gossypium hirsutum) which are infested by eggs, larvae and puparia of the white fly Bemisia tabaci are dipped into a preparation of active compound of the desired concentration.
After the desired period of time, the kill in % is determined. 100% means that all animals have been killed; 0% means that none of the animals have been killed.

| Structure (SMILES) | Efficacy % Abbott (Bemisia tabaci; 0.096 kg of active compound/ha, 7 days after treatment) [%] | Efficacy % Abbott (Bemisia tabaci; 0.096 kg of active compound/ha, 10 days after treatment) [%] | Efficacy % Abbott (Bemisia tabaci; 0.096 kg of active compound/ha, 14 days after treatment) [%] | Efficacy % Abbott (Aphis gossypii; 0.015 % active compound, 7 days after the last treatment) [%] | Efficacy % Abbott (Aphis gossypii; 0.015 % active compound, 16 days after the last treatment) [%] | Efficacy % Abbott (Aphis gossypii; 0.015 % active compound, 29 days after the last treatment) [%] | Kill in % after 10 d (white fly Bemisia tabaci) [%] | Efficacy % Abbott (Bemisia tabaci; 0.0096 kg of active compound/ha, 7 days after treatment) [%] | Efficacy % Abbott (Bemisia tabaci; 0.0096 kg of active compound/ha, 10 days after treatment) [%] | Efficacy % Abbott (Bemisia tabaci; 0.0096 kg of active compound/ha, 14 days after treatment) [%] | Efficacy % Abbott (Aphis gossypii; 0.0144 % active compound, 7 days after the last treatment) [%] | Efficacy % Abbott (Aphis gossypii; 0.0144 % active compound, 16 days after the last treatment) [%] | Efficacy % Abbott (Aphis gossypii; 0.0144 % active compound, 29 days after the last treatment) [%] |
| --- | --- | --- | --- | --- | --- | --- | --- | --- | --- | --- | --- | --- | --- |
| N#C/N=C1\SCCN1Cc1ccc(Cl)nc1 [IIk] | 86 | 61 | 68 | – | – | – | – | – | – | – | – | – | – |
| O=[N+]([O-])/N=C1\NCCN1Cc1ccc(Cl)nc1 [Ex. (IIa)] | – | – | – | 100 | 89 | 33 | 0 | – | – | – | – | – | – |
| Cc1cc(C)c(C2=C(OC(=O)CC(C)(C)C)C3(CCCC3)OC2=O)c(C)c1 [Ex. (Ia)] | – | – | – | – | – | – | 0 | 49 | 87 | 78 | 0 | 0 | 0 |
